In patent publication US8809278B2, “Cyclic tetrapeptides” (University of Kansas, priority 2008, dated 2014):
Entries after “also recorded” stand apart in the source; their conditions may differ. Read-outs that look alike come from different tables or passages of the source. Where a SMILES comes first, the peptide text is derived from it.

How the values were obtained:
[1] = system: kappa-opioid receptor (KOR); settings: literature reports; cited from earlier work
δ opioid receptors (DOR) = target: T1, δ opioid receptors (DOR) (Mus musculus, UniProt P32300); test: Radioligand binding, δ opioid receptor, CHO cells ([3H]cyclo[D-Pen2,D-Pen5]enkephalin)
T1 construct: expressed in transfected cells
Description: (§1) Opioid receptor affinities were determined for the cyclic tetrapeptides using Chinese hamster ovary cells stably expressing κ, μ and δ opioid receptors, and their efficacies at κ opioid receptors were determined in the adenylyl cyclase assay as previously described (Arttamangkul, et al., J. Med. Chem. 1997, 40, 1211-1218; Soderstrom, et al., Eur. J. Pharmacol. 1997, 338, 191-197). [^3H]Diprenorphine, [^3H][D-Ala^2,NMePhe^4,glyol]enkephalin and [^3H]cyclo[D-Pen^2,D-Pen^5]enkephalin were used as the radioligands in the binding assays for κ, μ and δ opioid receptors, respectively. In the adenylyl cyclase assay, the efficacies were determined by measuring the inhibition of adenylyl cyclase by 10 μM of the peptides relative to dynorphin A-(1-13) amide (100%).
(§2) The study was done using [^3H]diprenorphine, [^3][D-Ala^2,NMePhe^4,glyol]enkephalin and [^3H]cyclo[D-Pen^2,D-Pen^5]enkephalin binding to CHO membranes expressing KOR, MOR and DOR, respectively.

κ opioid receptors (KOR) = format: binding; settings: for Ki: [3H]diprenorphine
Description: as §1, §2

μ opioid receptors (MOR) = target: T2, μ opioid receptors (MOR) (Rattus norvegicus, UniProt P33535); test: Radioligand binding, μ opioid receptor, CHO cells ([3H][D-Ala2,NMePhe4,glyol]enkephalin)
T2 construct: expressed in transfected cells
Description: as §1, §2

KOR = target: T3, KOR (Mus musculus, UniProt P33534); test: 55° C. warm-water tail-withdrawal assay, antagonism of the KOR selective agonist U50,488; format: in vivo; settings: for antagonism of the KOR selective agonist U50,488: tested 2-2.5 hours after peptide administration, i.c.v.; for duration of KOR antagonist activity: mice, tail-withdrawal assay
T3 construct: from tissue; host or cells: living C57Bl/6J mice (in vivo)
Description: (§3) An antinociceptive (analgesic) assay was performed to test the KOR agonist activity of cyclic tetrapeptides cyclo[Trp-Phe-D-Pro-Phe] […] After determining baseline tail-withdrawal latencies, mice received a single intracerebroventricular (i.c.v.) dose of vehicle (artificial cerebrospinal fluid, 146 mM NaCl, 2.7 mM KCl, 1.2 mM, CaCl2, 1.0 mM MgCl2) or a dose of test compound i.c.v. and the tail-withdrawal latency was again measured. For i.c.v. injections, each mouse was lightly anesthetized with isoflurane, an incision was made in the scalp, and the injection was made 2 mm lateral and 2 mm caudal to bregma at a depth of 3 mm directly into the lateral ventricle, as detailed previously (McLaughlin et al., 1999). The volume of these injections was 5 μl, using a 10-μl Hamilton microliter syringe. Reference agonists and antagonists were administered either subcutaneously (s.c.) or interperitoneally (i.p.) in 0.9% saline at the doses and times indicated in the figure legends (negative numbers indicate time prior to tail-withdrawal assay).
The ability of the cyclic tetrapeptides to function as KOR antagonists were studied by assessing the ability to antagonize the KOR selective agonist U50,488. […] Briefly, the antagonistic activity was tested 2-2.5 hours after peptide administration.
The duration of KOR antagonism of the cyclic tetrapeptides was studied.

C57B1/6J mice [2] = test: 55° C. warm-water tail-withdrawal assay, agonist (antinociceptive) activity; format: in vivo, mouse; settings: for agonist activity in the 55° C. warm water tail withdrawal assay: i.c.v. administration; for pattern of opioid activity in vivo: tail-withdrawal assay
Description: as §3

κ opioid receptors = target: T4, κ opioid receptors (Rattus norvegicus, UniProt P34975); test: Adenylyl cyclase assay (efficacy at κ opioid receptors); format: cell-based; settings: 10 μM peptide; relative to dynorphin A-(1-13) amide (100%)
T4 construct: expressed in transfected cells
Description: as §1

KOR in mouse brain = target: T5, KOR in mouse brain (Mus musculus, UniProt P33534); test: Affinity for KOR in mouse brain; format: binding
T5 construct: from tissue; host or cells: mouse brain

MOR = target: T6, MOR (Mus musculus, UniProt P42866); test: 55° C. warm-water tail-withdrawal assay, antagonism of the MOR selective agonist morphine; format: in vivo; settings: mice
T6 construct: from tissue; host or cells: living C57Bl/6J mice (in vivo)
Description: as §3
(§4) The ability of JVA-2802 to selectively antagonize an opioid receptor was studied. Briefly, the antagonistic activity of JVA-2802 was studied for MOR, DOR, and KOR activity by the ability to antagonize the MOR selective agonist morphine, the DOR selective agonist SNC-80, and the KOR selective agonist U50,488.

DOR = target: T7, DOR (Mus musculus, UniProt P32300); test: 55° C. warm-water tail-withdrawal assay, antagonism of the DOR selective agonist SNC-80; format: in vivo; settings: mice
T7 construct: from tissue; host or cells: living C57Bl/6J mice (in vivo)
Description: as §3, §4

C57B1/6J mice [3] = test: Stress-induced reinstatement of cocaine conditioned place preference; format: in vivo, mouse; settings: 3 nmol i.c.v. 40 minutes prior to forced swim stress
Description: The establishment of cocaine conditioned place preference (CPP), extinction and stress-induced reinstatement of cocaine CPP were preformed in C57B1/6J mice as previously described (Carey, A. N.; Borozny, K.; Aldrich, J. V.; McLaughlin, J. P. Reinstatement of cocaine place-conditioning prevented by the peptide kappa-opioid receptor antagonist arodyn. Eur. J. Pharmacol. 2007, 569, 84-89). […] Place conditioning subsequently began immediately following cocaine administration (10 mg/kg s.c), whereupon mice were consistently confined for 30 min in the appropriate compartment in the CPP apparatus. Conditioning with assay vehicle (0.9% saline) followed 4 hours later in a similar manner, but paired to the opposite chamber. This conditioning cycle was repeated once on each of four days. On the fifth day, mice were again allowed to freely move through the apparatus. […]
One group of animals was then subjected to a 2-day forced swim stress protocol (with a single long swim (15 minutes) on day 1, and a series of four 6-minutes trials on day 2) to produce reinstatement of cocaine CPP. […] One hour after the final exposure to forced swim stress, the place preference responses of the mice were determined as described above to determine possible reinstatement of cocaine CPP (FIG. 6, middle panel). […]

[4] = CHO membranes expressing DOR, read-out: DOR Ki
[5] = CHO membranes expressing KOR, read-out: KOR Ki
[6] = CHO membranes expressing MOR, read-out: MOR Ki
[7] = CHO cells stably expressing δ receptors, (n) in brackets, read-out: Ki (nM ± SEM) δ
[8] = CHO cells stably expressing κ receptors, (n) in brackets, read-out: Ki (nM ± SEM) κ
[9] = CHO cells stably expressing μ receptors, (n) in brackets, read-out: Ki (nM ± SEM) μ

T2 sequence (P33535 whole entry): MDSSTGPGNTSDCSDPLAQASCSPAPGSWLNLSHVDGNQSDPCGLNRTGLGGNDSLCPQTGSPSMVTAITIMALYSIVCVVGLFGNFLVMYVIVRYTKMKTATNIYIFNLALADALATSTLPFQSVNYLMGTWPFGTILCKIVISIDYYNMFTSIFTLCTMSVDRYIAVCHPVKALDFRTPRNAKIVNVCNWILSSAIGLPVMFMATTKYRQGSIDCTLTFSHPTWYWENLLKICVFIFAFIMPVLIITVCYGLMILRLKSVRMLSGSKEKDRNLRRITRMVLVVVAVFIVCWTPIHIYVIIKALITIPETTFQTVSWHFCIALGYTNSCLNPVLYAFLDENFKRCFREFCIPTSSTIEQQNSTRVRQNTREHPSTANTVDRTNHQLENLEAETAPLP
T1 sequence (P32300 whole entry): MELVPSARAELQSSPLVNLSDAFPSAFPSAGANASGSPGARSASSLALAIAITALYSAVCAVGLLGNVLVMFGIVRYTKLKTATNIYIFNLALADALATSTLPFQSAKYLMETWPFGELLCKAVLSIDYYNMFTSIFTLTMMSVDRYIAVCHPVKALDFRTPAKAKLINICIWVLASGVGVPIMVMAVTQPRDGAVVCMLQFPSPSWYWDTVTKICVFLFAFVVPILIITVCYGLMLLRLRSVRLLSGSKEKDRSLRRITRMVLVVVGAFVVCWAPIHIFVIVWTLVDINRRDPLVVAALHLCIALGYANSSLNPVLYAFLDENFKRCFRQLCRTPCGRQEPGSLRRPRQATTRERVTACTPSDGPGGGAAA
T4 sequence (P34975 whole entry): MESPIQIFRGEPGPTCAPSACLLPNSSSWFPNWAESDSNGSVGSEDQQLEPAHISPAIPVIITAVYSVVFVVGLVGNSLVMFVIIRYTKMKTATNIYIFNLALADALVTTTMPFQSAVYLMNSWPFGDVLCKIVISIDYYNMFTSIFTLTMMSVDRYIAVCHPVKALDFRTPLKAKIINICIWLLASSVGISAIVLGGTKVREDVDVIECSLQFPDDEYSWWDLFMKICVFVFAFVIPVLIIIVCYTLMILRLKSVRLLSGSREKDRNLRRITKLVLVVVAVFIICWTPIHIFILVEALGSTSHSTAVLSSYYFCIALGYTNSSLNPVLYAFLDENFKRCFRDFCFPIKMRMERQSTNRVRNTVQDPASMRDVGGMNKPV
T3 sequence (P33534 whole entry): as the sequence (P34975 whole entry) above, with E11D, A17S, P51S, V308A counted along it
T6 sequence (P42866 whole entry): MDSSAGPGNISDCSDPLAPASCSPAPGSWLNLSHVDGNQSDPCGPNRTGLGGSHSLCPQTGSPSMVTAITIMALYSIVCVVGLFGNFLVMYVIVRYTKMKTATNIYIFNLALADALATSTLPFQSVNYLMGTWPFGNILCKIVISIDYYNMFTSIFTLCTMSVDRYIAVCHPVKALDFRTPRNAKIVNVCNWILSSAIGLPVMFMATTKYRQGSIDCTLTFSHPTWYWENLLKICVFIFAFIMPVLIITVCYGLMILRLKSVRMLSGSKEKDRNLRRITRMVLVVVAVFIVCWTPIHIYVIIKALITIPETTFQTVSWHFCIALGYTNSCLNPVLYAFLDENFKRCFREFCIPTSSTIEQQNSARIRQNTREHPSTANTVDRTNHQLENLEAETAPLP
T7 sequence (P32300 whole entry): as the sequence (P32300 whole entry) above
T5 sequence (P33534 whole entry): as the sequence (P34975 whole entry) above, with E11D, A17S, P51S, V308A counted along it

Row | Compound | Ki (δ opioid receptors (DOR); [4]) [nM] | Ki (κ opioid receptors (KOR); [5]) [nM] | Ki (μ opioid receptors (MOR); [6]) [nM] | antagonism of the KOR selective agonist U50,488 (KOR) | agonist activity in the 55° C. warm water tail withdrawal assay (C57B1/6J mice [2]) | Ki (δ opioid receptors (DOR); [7]) [nM] | Cyclase screen (% control) (κ opioid receptors) [%] | Ki (κ opioid receptors (KOR); [8]) [nM] | Ki (μ opioid receptors (MOR); [9]) [nM] | duration of KOR antagonist activity (KOR) | also measured
1 | CC(C)[C@@H](CN1CC[C@@](C)(c2cccc(O)c2)[C@@H](C)C1)NC(=O)[C@H]1Cc2ccc(O)cc2CN1 [JDTic] |  |  |  |  |  |  |  |  |  |  | stress-induced reinstatement of cocaine-seeking behavior [1]: block stress-induced reinstatement
2 | C[C@@H]1C(=O)N[C@@H](Cc2ccccc2)C(=O)N[C@H](Cc2c[nH]c3ccccc23)C(=O)N[C@@H](Cc2ccccc2)C(=O)N1C [JVA 3001] (HELM PEPTIDE1{F.[C[C@H](C(=O)[*:2])N(C)[*:1]].F.[dW]}$PEPTIDE1,PEPTIDE1,1:R1-4:R2$$$V2.0) | 5690 | 68.9 | 58.1 |  |  |  |  |  |  |  | 
3 | C[C@H]1NC(=O)[C@H](Cc2ccccc2)NC(=O)[C@H]2CCCN2C(=O)[C@H](Cc2ccccc2)NC1=O [JVA 3002] | 11000 | 1250 | 774 |  |  |  |  |  |  |  | 
4 | C[C@@H]1NC(=O)[C@H]2CCCN2C(=O)[C@H](Cc2ccccc2)NC(=O)[C@@H](Cc2c[nH]c3ccccc23)NC1=O [JVA 3004] (HELM PEPTIDE1{A.[dW].F.[dP]}$PEPTIDE1,PEPTIDE1,1:R1-4:R2$$$V2.0) | 18000 | 169 | 186 |  |  |  |  |  |  |  | 
5 | O=C1N[C@@H](Cc2ccccc2)C(=O)N2CCC[C@@H]2C(=O)N[C@@H](Cc2ccccc2)C(=O)N[C@H]1Cc1c[nH]c2ccccc12 [JVA-2801, cyclo[Trp-Phe-D-Pro-Phe]] (HELM PEPTIDE1{F.W.F.[dP]}$PEPTIDE1,PEPTIDE1,1:R1-4:R2$$$V2.0) |  |  |  | dose-dependent antagonism | can function as agonists; also recorded: robust agonist activity | 4150 ± 3020 | 119 | 35.4 ± 3.6 | 619 ± 87 |  | reversal of agonist activity by the KOR selective antagonist nor-BNI (C57B1/6J mice [2]; i.c.v. peptide): partially reversed; reversal of agonist activity by the MOR selective antagonist β-FNA (C57B1/6J mice [2]; i.c.v. peptide): completely reversed; Ki (KOR in mouse brain): ~21 nM
6 | O=C1N[C@H](Cc2c[nH]c3ccccc23)C(=O)N[C@@H](Cc2ccccc2)C(=O)N2CCC[C@@H]2C(=O)N[C@H]1Cc1ccccc1 [JVA-2802, cyclo[D-Trp-Phe-D-Pro-Phe]] (HELM PEPTIDE1{F.[dP].F.[dW]}$PEPTIDE1,PEPTIDE1,1:R1-4:R2$$$V2.0) |  |  |  | dose-dependent antagonism | did not show any agonist activity; also recorded: did not exhibit any agonist activity | 2910 ± 1350 | 127 | 30.6 ± 3.4 | 259 ± 29 | less than a day | antagonism of the MOR selective agonist morphine (MOR): does not antagonize; antagonism of the DOR selective agonist SNC-80 (DOR): does not antagonize; stress-induced reinstatement of cocaine conditioned place preference (C57B1/6J mice [3]): blocks stress-induced reinstatement
7 | C[C@@H]1NC(=O)[C@H](Cc2c[nH]c3ccccc23)NC(=O)[C@H](Cc2ccccc2)NC(=O)[C@H]2CCCN2C1=O [JVA-2803, cyclo[Trp-Ala-D-Pro-Phe]] (HELM PEPTIDE1{A.[dP].F.W}$PEPTIDE1,PEPTIDE1,1:R1-4:R2$$$V2.0) |  |  |  | more potent than JVA-2801 | can function as agonists; also recorded: more potent than JVA-2801 | 8680 ± 1270 | 122 | 8.03 ± 1.67 | 32.1 ± 3.9 | less than a day | antagonism of the KOR selective agonist U50,488 (KOR; listed as 2803): exhibits KOR antagonist activity; pattern of opioid activity in vivo (C57B1/6J mice [2]): exhibit both agonist activity and KOR antagonist activity; fold higher KOR affinity than the parent peptide (κ opioid receptors (KOR); relative to parent (Phe) peptide / CJ-15,208): 4 fold; fold higher MOR affinity than JVA-2801 (μ opioid receptors (MOR); relative to JVA-2801): 19 fold
8 | C[C@@H]1NC(=O)[C@@H](Cc2c[nH]c3ccccc23)NC(=O)[C@H](Cc2ccccc2)NC(=O)[C@H]2CCCN2C1=O [JVA-3003, cyclo[D-Trp-Ala-D-Pro-Phe]] (HELM PEPTIDE1{A.[dP].F.[dW]}$PEPTIDE1,PEPTIDE1,1:R1-4:R2$$$V2.0) | 833 | 2.81 | 27.3 | exhibits KOR antagonist activity | can function as an agonist; also recorded: robust agonist activity | 8330 ± 1220 | 75 | 3.15 ± 0.41 |  | less than a day | pattern of opioid activity in vivo (C57B1/6J mice [2]): exhibits a pattern similar to the L-Trp peptides
